According to patent publication US7666890B2, “Synthesis and herbicidal activity of 1- (2-substituted benzo[d]thiazol-5-yl)-1H-1,2,4-triazol-5(4H)-one derivatives” (Huazhong Normal University, priority 2007, dated 2010):

Experiments:
Experiment in all cases: Test of herbicidal activities (greenhouse pot method)
Assay type in all cases: in vivo
Details in all cases: single dose 300 g ai./h, treated before/after germination, 15 days later, greenhouse pot
[1] = tested on: Amaranthus retroflexus
Summary of the method: (§1)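 Greenhouse pot test at a single dose of 300 g ai./h, applied by spray tower pre- or post-emergence, with grasses at the 2-leaf stage, in triplicate with a blank control. Plants were kept at 15–30 °C. Inhibition was graded after 15 days: A 90–100%, B 80–<90%, C 60–<80%, D 50–<60%, E <50%.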

[2] = tested on: Brassica juncea
Summary of the method: as §1

[3] = tested on: Chenopodium album
Summary of the method: as §1

[4] = tested on: Digiatria sanguinalis
Summary of the method: as §1

[5] = tested on: Echinochloa crusgalli
Summary of the method: as §1

[6] = tested on: Setaria viridis
Summary of the method: as §1

| SMILES | Herbicidal activity Amaranthus retroflexus (inhibition level) [1] | Herbicidal activity Brassica juncea (inhibition level) [2] | Herbicidal activity Chenopodium album (inhibition level) [3] | Herbicidal activity Digiatria sanguinalis (inhibition level) [4] | Herbicidal activity Echinochloa crusgalli (inhibition level) [5] | Herbicidal activity Setaria viridis (inhibition level) [6] |
| --- | --- | --- | --- | --- | --- | --- |
| Cc1nn(-c2cc3nc(S(=O)(=O)Cc4cccc(Cl)c4)sc3cc2F)c(=O)n1C(F)F [Compound 53] | B (80 ≦ B < 90%) | A (90 ≦ A ≦ 100%) | B (80 ≦ B < 90%) | B (80 ≦ B < 90%) | C (60 ≦ C < 80%) | D (50 ≦ D < 60%) |
| Cc1nn(-c2cc3nc(SCc4cccc(F)c4)sc3cc2Cl)c(=O)n1C(F)F [Compound 7] | B (80 ≦ B < 90%) | C (60 ≦ C < 80%) | E (E < 50%) | B (80 ≦ B < 90%) | E (E < 50%) | B (80 ≦ B < 90%) |
| CCOCCSc1nc2cc(-n3nc(C)n(C(F)F)c3=O)c(Cl)cc2s1 [Compound 78] | A (90 ≦ A ≦ 100%) | D (50 ≦ D < 60%) | B (80 ≦ B < 90%) | A (90 ≦ A ≦ 100%) | C (60 ≦ C < 80%) | A (90 ≦ A ≦ 100%) |
| CCCSc1nc2cc(-n3nc(C(F)(F)F)n(C(F)F)c3=O)c(Br)cc2s1 [Compound 129] | A (90 ≦ A ≦ 100%) | C (60 ≦ C < 80%) | A (90 ≦ A ≦ 100%) | A (90 ≦ A ≦ 100%) | A (90 ≦ A ≦ 100%) | C (60 ≦ C < 80%) |
| Cc1nn(-c2cc3nc(SCc4cccc(F)c4)sc3cc2F)c(=O)n1C(F)F [Compound 19] | A (90 ≦ A ≦ 100%) | B (80 ≦ B < 90%) | A (90 ≦ A ≦ 100%) | B (80 ≦ B < 90%) | E (E < 50%) | C (60 ≦ C < 80%) |
| Cc1nn(-c2cc3nc(SCc4ccc(F)cc4)sc3cc2F)c(=O)n1C(F)F [Compound 20] | A (90 ≦ A ≦ 100%) | B (80 ≦ B < 90%) | B (80 ≦ B < 90%) | C (60 ≦ C < 80%) | C (60 ≦ C < 80%) | B (80 ≦ B < 90%) |
| C=CCSc1nc2cc(-n3nc(C(F)(F)F)n(C(F)F)c3=O)c(Br)cc2s1 [Compound 128] | A (90 ≦ A ≦ 100%) | A (90 ≦ A ≦ 100%) | B (80 ≦ B < 90%) | C (60 ≦ C < 80%) | A (90 ≦ A ≦ 100%) | D (50 ≦ D < 60%) |
| CCOC(=O)CS(=O)(=O)c1nc2cc(-n3nc(C)n(C(F)F)c3=O)c(F)cc2s1 [Compound 65] | A (90 ≦ A ≦ 100%) | A (90 ≦ A ≦ 100%) | A (90 ≦ A ≦ 100%) | B (80 ≦ B < 90%) | C (60 ≦ C < 80%) | B (80 ≦ B < 90%) |
| Cc1nn(-c2cc3nc([S+]([O-])Cc4cccc(Cl)c4)sc3cc2F)c(=O)n1C (stereo not drawn) [Compound 103] | A (90 ≦ A ≦ 100%) | D (50 ≦ D < 60%) | A (90 ≦ A ≦ 100%) | B (80 ≦ B < 90%) | E (E < 50%) | B (80 ≦ B < 90%) |
| Cc1nn(-c2cc3nc(S(=O)(=O)Cc4ccc(F)cc4F)sc3cc2F)c(=O)n1C(F)F [Compound 49] | A (90 ≦ A ≦ 100%) | A (90 ≦ A ≦ 100%) | B (80 ≦ B < 90%) | C (60 ≦ C < 80%) | A (90 ≦ A ≦ 100%) | D (50 ≦ D < 60%) |
| Cc1nn(-c2cc3nc(SCc4ccc(Cl)cc4)sc3cc2Cl)c(=O)n1C(F)F [Compound 5] | A (90 ≦ A ≦ 100%) | B (80 ≦ B < 90%) | E (E < 50%) | B (80 ≦ B < 90%) | C (60 ≦ C < 80%) | E (E < 50%) |
| Cc1nn(-c2cc3nc(SCc4ccccc4Cl)sc3cc2Cl)c(=O)n1C(F)F [Compound 3] | B (80 ≦ B < 90%) | C (60 ≦ C < 80%) | E (E < 50%) | C (60 ≦ C < 80%) | E (E < 50%) | E (E < 50%) |
| CSc1nc2cc(-n3nc(C)n(C(F)F)c3=O)c(F)cc2s1 [Compound 90] | A (90 ≦ A ≦ 100%) | A (90 ≦ A ≦ 100%) | A (90 ≦ A ≦ 100%) | A (90 ≦ A ≦ 100%) | B (80 ≦ B < 90%) | A (90 ≦ A ≦ 100%) |
| CCOC(=O)CSc1nc2cc(-n3nc(C(F)(F)F)n(C(F)F)c3=O)c(F)cc2s1 [Compound 122] | E (E < 50%) | E (E < 50%) | E (E < 50%) | E (E < 50%) | C (60 ≦ C < 80%) | E (E < 50%) |
| CCCS(=O)(=O)c1nc2cc(-n3nc(C)n(C(F)F)c3=O)c(F)cc2s1 [Compound 64] | B (80 ≦ B < 90%) | D (50 ≦ D < 60%) | B (80 ≦ B < 90%) | A (90 ≦ A ≦ 100%) | B (80 ≦ B < 90%) | B (80 ≦ B < 90%) |
| CCS(=O)(=O)c1nc2cc(-n3nc(C)n(C(F)F)c3=O)c(F)cc2s1 [Compound 56] | A (90 ≦ A ≦ 100%) | A (90 ≦ A ≦ 100%) | C (60 ≦ C < 80%) | D (50 ≦ D < 60%) | B (80 ≦ B < 90%) | D (50 ≦ D < 60%) |
| Cc1ccc(C[S+]([O-])c2nc3cc(-n4nc(C)n(C(F)F)c4=O)c(F)cc3s2)cc1 (stereo not drawn) [Compound 105] | B (80 ≦ B < 90%) | B (80 ≦ B < 90%) | B (80 ≦ B < 90%) | C (60 ≦ C < 80%) | D (50 ≦ D < 60%) | B (80 ≦ B < 90%) |
| CCCCCCSc1nc2cc(-n3nc(C)n(C(F)F)c3=O)c(F)cc2s1 [Compound 83] | A (90 ≦ A ≦ 100%) | C (60 ≦ C < 80%) | A (90 ≦ A ≦ 100%) | D (50 ≦ D < 60%) | B (80 ≦ B < 90%) | A (90 ≦ A ≦ 100%) |
